Laboratory results published in PMC5772529 (Scientific Reports, 2018).
Positions of bridges follow the written chain, without caps; N, C: chain ends. Residues, ends and D or L forms follow the SMILES beside them.

How the values were obtained:
[1] = molecular target: T1, human CaV2.2 (α1B, β3, α2δ1) (Homo sapiens, UniProt Q00975); assay: cell-based; set-up: Emax: dose or concentration left out as unconfirmed
T1 construct: expressed in transfected cells

Beagle dogs = settings: dog, in vivo

T1 sequence (Q00975 whole entry, looked up): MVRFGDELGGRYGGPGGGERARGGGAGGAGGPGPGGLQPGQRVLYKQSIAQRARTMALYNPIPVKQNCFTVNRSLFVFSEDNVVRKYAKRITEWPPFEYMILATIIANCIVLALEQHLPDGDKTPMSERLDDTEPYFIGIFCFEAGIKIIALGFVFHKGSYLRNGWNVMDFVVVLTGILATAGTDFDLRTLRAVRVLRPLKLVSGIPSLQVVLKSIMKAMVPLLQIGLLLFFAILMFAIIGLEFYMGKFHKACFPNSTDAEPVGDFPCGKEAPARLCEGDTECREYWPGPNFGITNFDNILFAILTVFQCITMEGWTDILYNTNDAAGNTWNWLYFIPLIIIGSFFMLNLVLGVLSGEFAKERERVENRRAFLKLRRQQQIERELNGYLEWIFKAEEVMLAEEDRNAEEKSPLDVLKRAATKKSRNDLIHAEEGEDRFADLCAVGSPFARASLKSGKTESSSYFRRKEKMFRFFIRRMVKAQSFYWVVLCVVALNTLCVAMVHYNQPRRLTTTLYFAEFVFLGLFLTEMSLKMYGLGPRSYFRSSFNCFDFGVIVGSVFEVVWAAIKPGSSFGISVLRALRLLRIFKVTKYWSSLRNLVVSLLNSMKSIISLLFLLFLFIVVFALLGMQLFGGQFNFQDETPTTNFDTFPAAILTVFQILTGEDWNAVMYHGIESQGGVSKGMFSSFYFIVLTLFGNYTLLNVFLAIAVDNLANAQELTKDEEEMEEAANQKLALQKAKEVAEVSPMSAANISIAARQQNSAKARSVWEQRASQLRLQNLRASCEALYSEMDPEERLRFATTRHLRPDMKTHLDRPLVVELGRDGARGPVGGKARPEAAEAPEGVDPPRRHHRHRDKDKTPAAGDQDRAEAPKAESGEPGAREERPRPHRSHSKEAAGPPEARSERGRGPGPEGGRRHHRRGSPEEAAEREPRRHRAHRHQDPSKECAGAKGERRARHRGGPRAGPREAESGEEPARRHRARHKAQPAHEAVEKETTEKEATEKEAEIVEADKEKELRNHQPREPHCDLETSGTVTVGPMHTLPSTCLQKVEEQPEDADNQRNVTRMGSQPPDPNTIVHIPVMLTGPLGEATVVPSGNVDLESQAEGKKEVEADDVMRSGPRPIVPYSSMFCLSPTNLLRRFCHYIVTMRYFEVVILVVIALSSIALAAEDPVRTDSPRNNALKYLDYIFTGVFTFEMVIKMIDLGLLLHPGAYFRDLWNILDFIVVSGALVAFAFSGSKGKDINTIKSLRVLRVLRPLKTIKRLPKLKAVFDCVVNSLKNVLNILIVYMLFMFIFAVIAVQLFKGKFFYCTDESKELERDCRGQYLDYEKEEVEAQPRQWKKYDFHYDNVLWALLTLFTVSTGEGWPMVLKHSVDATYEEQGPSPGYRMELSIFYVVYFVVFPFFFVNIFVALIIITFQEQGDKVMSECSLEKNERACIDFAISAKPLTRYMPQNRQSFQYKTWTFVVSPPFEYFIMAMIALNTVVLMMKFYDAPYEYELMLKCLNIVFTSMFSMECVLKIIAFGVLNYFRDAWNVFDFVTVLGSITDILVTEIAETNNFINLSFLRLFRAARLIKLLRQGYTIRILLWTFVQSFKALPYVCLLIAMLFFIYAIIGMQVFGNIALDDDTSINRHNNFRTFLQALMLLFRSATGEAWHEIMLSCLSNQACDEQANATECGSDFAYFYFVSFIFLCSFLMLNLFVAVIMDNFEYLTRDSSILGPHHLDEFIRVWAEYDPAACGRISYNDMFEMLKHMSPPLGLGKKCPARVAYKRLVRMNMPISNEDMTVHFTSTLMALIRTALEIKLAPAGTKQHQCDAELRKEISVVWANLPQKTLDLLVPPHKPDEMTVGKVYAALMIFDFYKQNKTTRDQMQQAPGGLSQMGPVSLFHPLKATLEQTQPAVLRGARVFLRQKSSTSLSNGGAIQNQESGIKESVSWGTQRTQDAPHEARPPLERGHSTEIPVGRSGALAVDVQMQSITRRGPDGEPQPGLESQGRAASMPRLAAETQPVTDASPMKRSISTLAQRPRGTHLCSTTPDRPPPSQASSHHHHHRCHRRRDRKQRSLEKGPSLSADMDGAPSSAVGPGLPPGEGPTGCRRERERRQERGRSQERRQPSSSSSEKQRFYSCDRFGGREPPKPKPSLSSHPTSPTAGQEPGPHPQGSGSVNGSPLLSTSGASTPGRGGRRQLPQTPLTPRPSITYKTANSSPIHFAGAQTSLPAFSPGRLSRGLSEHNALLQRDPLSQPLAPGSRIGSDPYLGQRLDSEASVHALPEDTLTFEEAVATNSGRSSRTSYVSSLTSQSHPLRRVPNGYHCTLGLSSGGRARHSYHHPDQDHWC

CSCC[C@@H]1NC(=O)[C@@H]2CSSC[C@H](NC(=O)CN)C(=O)N[C@@H](CSSC[C@@H](C(N)=O)NC(=O)[C@H](CC(C)C)NC(=O)[C@H](CC(N)=O)NC(=O)[C@@H]3CCCN3C(=O)[C@H](CC(N)=O)NC(=O)[C@H](CCCCN)NC(=O)[C@H](CC(C)C)NC1=O)C(=O)N[C@@H](CO)C(=O)N[C@@H](CC(N)=O)C(=O)N1CCC[C@H]1C(=O)N[C@@H](C)C(=O)N2 [Eu1.6] (H-GCCSNPACMLKNPNLC-NH2; disulfide 2-8, 3-16)
IC50 [1]: 1.1 nM | maximum block of CaV2.2 [1]: < 50% | reduction of peak current density [1]: > 40% | inhibition at 1 µM ([1]; HEK293, read-out: inhibition of depolarization-activated Ba2+ current amplitude): > 30% | Emax ([1]; HEK293, read-out: maximal effect (partial inhibitor)): 40% | physiological impairments of baseline parameters (locomotion, cardiac and respiratory function) (Beagle dogs): no physiological impairments
